Like-named read-outs stand apart in the source and are kept apart here.
Experiments:
Format in all cases: cell-based
[1] = test system: wild type laboratory HIV strain (WT IIIB-2-001); test: Cellular anti-viral assay in MT4-LTR-EGFP cells, wild type strain; details: for EC50: Human immunodeficiency virus 1, IIIB, 72 h, read-out: pEC50 WT-IIIB-2-001 (converted)
Method: The compounds were tested in a cellular assay using the MT4-LTR-EGFP cells for anti-viral activity.
The cellular assay was performed according to the following procedure. HIV- or mock-infected MT4-LTR-EGFP cells were incubated for three days in the presence of various concentrations of the compounds according to the invention. Upon infection, the viral tat protein activates the GFP reporter. At the end of the incubation period, the GFP signal was measured. […] The inhibitory activity of the compound was monitored on the virus-infected cells and was expressed as EC50. These values represent the amount of the compound required to protect 50% of the cells from virus infection.

[2] = test system: clinically isolated HIV strain A; test: Cellular anti-viral assay in MT4-LTR-EGFP cells, mutant strain A; details: for pEC50 virus strain A: MT4-LTR-EGFP cells, three days, GFP signal; for EC50: Human immunodeficiency virus 1, 72 h, read-out: pEC50 virus strain A (converted)
Method: (§1) Because of the increasing emergence of drug resistant HIV strains, the present compounds were tested for their potency against clinically isolated HIV strains harboring several mutations. These mutations are associated with resistance to protease inhibitors and result in viruses that show various degrees of phenotypic cross-resistance to the currently commercially available drugs such as for instance saquinavir, ritonavir, nelfinavir, indinavir and amprenavir. The viral strains coded as A, B, C and D contain mutations as indicated below in Table 2.
(§2) The cellular assay was performed according to the following procedure. HIV- or mock-infected MT4-LTR-EGFP cells were incubated for three days in the presence of various concentrations of the compounds according to the invention. Upon infection, the viral tat protein activates the GFP reporter. At the end of the incubation period, the GFP signal was measured. In the virus control samples (in the absence of any inhibitor) the maximal fluorescent signal was obtained. The inhibitory activity of the compound was monitored on the virus-infected cells and was expressed as EC50. These values represent the amount of the compound required to protect 50% of the cells from virus infection. (Table 3).

[3] = test system: clinically isolated HIV strain B; test: Cellular anti-viral assay in MT4-LTR-EGFP cells, mutant strain B; details: for pEC50 virus strain B: MT4-LTR-EGFP cells, three days, GFP signal; for EC50: Human immunodeficiency virus 1, 72 h, read-out: pEC50 virus strain B (converted)
Method: as §1, §2

[4] = test system: clinically isolated HIV strain C; test: Cellular anti-viral assay in MT4-LTR-EGFP cells, mutant strain C; details: for pEC50 virus strain C: MT4-LTR-EGFP cells, three days, GFP signal; for EC50: Human immunodeficiency virus 1, 72 h, read-out: pEC50 virus strain C (converted)
Method: as §1, §2

[5] = test system: clinically isolated HIV strain D; test: Cellular anti-viral assay in MT4-LTR-EGFP cells, mutant strain D; details: for pEC50 virus strain D: MT4-LTR-EGFP cells, three days, GFP signal; for EC50: Human immunodeficiency virus 1, 72 h, read-out: pEC50 virus strain D (converted)
Method: as §1, §2

[6] = MT4-LTR-EGFP cells, three days, GFP signal

Compound | pEC50 WT-IIIB-2-001 [1, 6] | pEC50 virus strain A [2] | pEC50 virus strain B [3] | pEC50 virus strain C [4] | pEC50 virus strain D [5] | EC50 [1, 6] [nM] | EC50 [2] [nM] | EC50 [3] [nM] | EC50 [4] [nM] | EC50 [5] [nM] | pEC50 WT-IIIB-2-001 [1]
CC(C)CN(C[C@@H](O)[C@H](Cc1ccccc1)NC(=O)O[C@H]1CO[C@H]2OCC[C@H]21)S(=O)(=O)c1ccc2nc(NC3CCN(C(C)C)CC3)sc2c1 [Compound 5] | 7.72 | 7.89 | 7.57 | 5.38 | 7.86 |  |  |  |  |  | 
CC(C)CN(C[C@@H](O)[C@H](Cc1ccccc1)NC(=O)O[C@H]1CO[C@H]2OCC[C@H]21)S(=O)(=O)c1ccc2nc(NC3CCN(Cc4ccccc4)CC3)sc2c1 [Compound 11, (1-Benzyl-3-{[2-(1-benzyl-piperidin-4-ylamino)-benzothiazole-6-sulfonyl]-isobutyl-amino}-2-hydroxy-propyl)-carbamic acid hexahydro-furo[2,3-b]furan-3-yl ester] |  |  |  |  |  | 2.51 | 22.4 | 33.9 | 5750 | 18.6 | 
COCCN1CCC(Nc2nc3ccc(S(=O)(=O)N(CC(C)C)CC(O)C(Cc4ccccc4)NC(=O)OC4COC5OCCC45)cc3s2)C1 (stereo not shown) [Compound 18] | 7.76 | 7.61 | 7.24 | 5.32 |  |  |  |  |  |  | 
CC(C)CN1CCC(Nc2nc3ccc(S(=O)(=O)N(CC(C)C)CC(O)C(Cc4ccccc4)NC(=O)OC4COC5OCCC45)cc3s2)C1 (stereo not shown) [Compound 19] | 8.42 | 7.84 | 7.33 | 5.35 | 7.75 |  |  |  |  |  | 
CC(C)CN(C[C@@H](O)[C@H](Cc1ccccc1)NC(=O)O[C@H]1CO[C@H]2OCC[C@H]21)S(=O)(=O)c1ccc2nc(NC3CCN(C(=O)CN(C)C)CC3)sc2c1 [Compound 9] | 6.56 | 6.99 | 6.59 | 5.00 | 6.99 |  |  |  |  |  | 
CC(C)CN(CC(O)C(Cc1ccccc1)NC(=O)OC1COC2OCCC12)S(=O)(=O)c1ccc2nc(NC3CCN(Cc4cncs4)C3)sc2c1 (stereo not shown) [Compound 23] | 7.97 | 8.56 | 7.56 | 5.36 | 8.27 |  |  |  |  |  | 
CC(C)CN(C[C@@H](O)[C@H](Cc1ccccc1)NC(=O)O[C@H]1CO[C@H]2OCC[C@H]21)S(=O)(=O)c1ccc2nc(NC3CCN(Cc4ccncc4)CC3)sc2c1 [Compound 12] | 8.34 | 8.26 | 7.71 | 5.19 | 8.27 |  |  |  |  |  | 
CC(C)CN(C[C@@H](O)[C@H](Cc1ccccc1)NC(=O)O[C@H]1CO[C@H]2OCC[C@H]21)S(=O)(=O)c1ccc2nc(NC3CCN(C(=O)CN4CCOCC4)CC3)sc2c1 [Compound 10] | 6.53 | 6.84 | 6.52 | 5.11 | 6.62 |  |  |  |  |  | 
CC(C)CN(C[C@@H](O)[C@H](Cc1ccccc1)NC(=O)O[C@H]1CO[C@H]2OCC[C@H]21)S(=O)(=O)c1ccc2nc(NC3CCN(Cc4cccnc4)CC3)sc2c1 [Compound 14] |  | 7.85 | 7.78 | 5.90 | 7.84 |  |  |  |  |  | 7.85
CC(C)CN(C[C@@H](O)[C@H](Cc1ccccc1)NC(=O)O[C@H]1CO[C@H]2OCC[C@H]21)S(=O)(=O)c1ccc2nc(NC3CCNC3)sc2c1 (stereo partly shown) [Compound 16] | 6.82 | 5.93 | 5.89 | 5.90 |  |  |  |  |  |  | 
CC(C)CN(CC(O)C(Cc1ccccc1)NC(=O)OC1COC2OCCC12)S(=O)(=O)c1ccc2nc(NC3CCN(Cc4cncs4)C3)sc2c1 (stereo not shown) [Compound 24] | 8.22 | 7.91 | 7.70 | 5.08 | 7.89 |  |  |  |  |  | 
CC(C)CN1CCC(Nc2nc3ccc(S(=O)(=O)N(CC(C)C)C[C@@H](O)[C@H](Cc4ccccc4)NC(=O)O[C@H]4CO[C@H]5OCC[C@H]54)cc3s2)CC1 [Compound 6] | 8.31 | 7.84 | 7.58 | 5.46 | 7.86 |  |  |  |  |  | 
CC(C)CN(C[C@@H](O)[C@H](Cc1ccccc1)NC(=O)O[C@H]1CO[C@H]2OCC[C@H]21)S(=O)(=O)c1ccc2nc(NC3CCN(Cc4ccccn4)CC3)sc2c1 [Compound 13] | 8.18 | 8.06 | 7.94 | 6.04 | 7.98 |  |  |  |  |  | 
CC(C)CN(CC(O)C(Cc1ccccc1)NC(=O)OC1COC2OCCC12)S(=O)(=O)c1ccc2nc(NC3CCN(Cc4ccncc4)C3)sc2c1 (stereo not shown) [Compound 22] | 7.71 |  | 7.77 | 6.19 |  |  |  |  |  |  | 
CC(C)CN(CC(O)C(Cc1ccccc1)NC(=O)OC1COC2OCCC12)S(=O)(=O)c1ccc2nc(NC3CCN(Cc4ccccn4)C3)sc2c1 (stereo not shown) [Compound 25] | 5.77 | 5.59 | 5.04 | <4.49 | 5.41 |  |  |  |  |  | 
COCCN1CCC(Nc2nc3ccc(S(=O)(=O)N(CC(C)C)C[C@@H](O)[C@H](Cc4ccccc4)NC(=O)O[C@H]4CO[C@H]5OCC[C@H]54)cc3s2)C1 (stereo in doubt) [Compound 17, [1-Benzyl-2-hydroxy-3-(isobutyl-{2-[1-(2-methoxy-ethyl)-pyrrolidin-3-ylamino]-benzothiazole-6-sulfonyl}-amino)-propyl]-carbamic acid hexahydro-furo[2,3-b]furan-3-yl ester] |  |  |  |  |  | 18.6 | 13.2 | 17 | 3390 |  | 
CC(C)CN1CCC(Nc2nc3ccc(S(=O)(=O)N(CC(C)C)CC(O)C(Cc4ccccc4)NC(=O)OC4COC5OCCC45)cc3s2)C1 (stereo not shown) [Compound 20] | 8.27 | 8.23 | 7.84 | 5.59 | 8.12 |  |  |  |  |  | 
COCCN1CCC(Nc2nc3ccc(S(=O)(=O)N(CC(C)C)C[C@@H](O)[C@H](Cc4ccccc4)NC(=O)O[C@H]4CO[C@H]5OCC[C@H]54)cc3s2)CC1 [Compound 8] | 7.44 | 6.65 | 7.00 | 5.25 |  |  |  |  |  |  | 
CC(C)CN(C[C@@H](O)[C@H](Cc1ccccc1)NC(=O)O[C@H]1CO[C@H]2OCC[C@H]21)S(=O)(=O)c1ccc2nc(NC3CCN(Cc4cncs4)CC3)sc2c1 [Compound 15] |  | 8.38 | 7.71 | 5.46 | 8.24 |  |  |  |  |  | 8.24
CC(C)CN(C[C@@H](O)[C@H](Cc1ccccc1)NC(=O)O[C@H]1CO[C@H]2OCC[C@H]21)S(=O)(=O)c1ccc2nc(NC3CCN(Cc4cccnc4)C3)sc2c1 (stereo in doubt) [Compound 21, (1-Benzyl-2-hydroxy-3-{isobutyl-[2-(1-pyridin-3-ylmethyl-pyrrolidin-3-ylamino)-benzothiazole-6-sulfonyl}-amino]-propyl)-carbamic acid hexahydro-furo[2,3-b]furan-3-yl ester] |  |  |  |  |  | 11.2 | 4.9 | 14.5 | 1820 | 7.08 | 

Source: patent US8202887B2, “2-(substituted-amino)-benzothiazole sulfonamide HIV protease inhibitors” (Janssen R&D Ireland, priority 2006, dated 2012)
